Assay results taken from patent publication EP4741380A1, “ISOXAZOLINE COMPOUND AND USE” (priority 2024, dated 2025).
Like-named read-outs stand apart in the source and are kept apart here.

Legend:
[1] = tested on: mites; assay: Mite killing efficacy test with an in vitro model; details: 30 µM drug solution
Protocol: Mite collection: Live mites were gently picked up from a cage box with cotton swabs or small tweezers, 17-26 live mites per group.
Drug treatment and detection method: 100 µL of a drug solution with a different concentration (drug solution prepared by 3% DMSO solution + 97% water and having a target final concentration of 30 µM) was aspirated with a pipette and added to a 24-well plate for each group, ensuring full contact between the drug and the mites. The mites were separately incubated at normal temperature for 5 min, transferred from each plate to another dry 24-well plate with the top sealed, and air-dried for about 1 h. Mite actions were observed, and the number of dead mites/the total number of mites was recorded. Then, the 24-well plate containing the mites was cultured at room temperature and relatively high humidity. The number of dead mites/the total number of mites was counted separately after 1 h, 2 h, 4 h, 6 h, 8 h, 22 h, and 24 h (time points after drug addition), and mite mortality rates were calculated. The project ended 24 h after drug addition.
At a corresponding time point, a mite mortality rate greater than or equal to 90% is denoted as "+++", a mite mortality rate less than 90% and greater than or equal to 50% is denoted as "++", and a mite mortality rate less than 50% is denoted as "+".

[2] = tested on: Borer; assay: Killing efficacy test against agricultural pests: borer test (leaf dip); format: in vivo; details: after 72 h
Protocol: (§1) Solution preparation: 2 mg of a test compound was weighed and dissolved in 200 µL of acetone, and the sample was diluted with an aqueous solution containing 0.1% Tween 80 to a required concentration to obtain a test solution. 1. Diamondback moth test: The test sample was prepared into solutions with final concentrations of 0.0156 mg/L, 0.125 mg/L, and 1 mg/L. Fresh and clean rapeseed leaves were cut into small pieces of 3 cm × 3 cm. The leaf pieces were immersed in the solutions with different concentrations for 10s, taken out, and air-dried naturally. The treated leaf pieces were placed into Petri dishes lined with moistened filter paper. 20 third-instar larvae of the diamondback moth were introduced into each Petri dish. The Petri dishes were placed in a constant-temperature room, and mortality rates were checked after 72 h. 2. Aphid test: The test sample was prepared into solutions with final concentrations of 2 mg/L, 10 mg/L, and 50 mg/L. Fresh cotton leaves of uniform size were immersed in the solutions with different concentrations for 10s, air-dried, and placed backside up on culture plates. 100 wingless adult aphids were introduced into each culture plate. The culture plates were sealed with paper strips and placed in a constant-temperature room. Mortality rates were checked after 72 h. 3. Mite test: The test sample was prepared into solutions with final concentrations of 0.02 mg/L, 0.2 mg/L, and 2 mg/L. Filter paper treated with the test solutions was placed in Petri dishes, and about 30 mites were placed at the center of each Petri dish. 0.05 g of mite feed was added to the center of each Petri dish after 30 min. The Petri dishes were placed in a constant-temperature room, and mortality rates were checked after 72 h. 4. Borer test: The test sample was prepared into solutions with final concentrations of 0.125 mg/L, 0.5 mg/L, and 2 mg/L. Fresh leaves were cut, immersed in the solutions with different concentrations for 10s, taken out, and air-dried. The treated leaves were placed in Petri dishes, and 30 borer larvae were introduced into each Petri dish. The Petri dishes were placed in a constant-temperature room, and mortality rates were checked after 72 h.

[3] = tested on: Mite; assay: Killing efficacy test against agricultural pests: mite test (treated filter paper); format: in vivo, mites; details: after 72 h
Protocol: as §1

[4] = tested on: Diamondback moth; assay: Killing efficacy test against agricultural pests: diamondback moth test (leaf dip); format: in vivo; details: Plutella xylostella, foliar, DiamondBack Moth, after 72 h, read-out: Corrected Mortality Rate (%); for mortality at 0.0156 µg/mL: 0.0156 mg/L; for mortality at 0.125 µg/mL: 0.125 mg/L; for mortality at 1 µg/mL: 1 mg/L
Protocol: as §1

[5] = tested on: Aphid; assay: Killing efficacy test against agricultural pests: aphid test (leaf dip); format: in vivo, aphids; details: after 72 h
Protocol: as §1

[6] = In vivo pharmacokinetic evaluation in mice; set-up: species or system ICR mice
Protocol: 1. Drug preparation: 5% DMSO + 10% macrogol 15 hydroxystearate (BASF) + 85% saline (where drug solutions have a final concentration of 1.2 mg/mL for the IV group and 3 mg/mL for the PO group). 2. Experimental animals: Each group included three mice (ICR mice, SPF grade). 3. Administration method: The body weight was measured before administration, and the dose was calculated according to the body weight. The mice were administered through intravenous injection or oral gavage. 4. Blood collection: After administration, blood samples were collected in 0.083 h, 0.25 h, 0.5 h, 1 h, 2 h, 4 h, 6 h, 8 h, and 24 h. The blood samples were collected via the cheek. Each sample included about 0.05 mL of blood anticoagulated with EDTA-2K. The blood samples were placed on wet ice after collection. 5. Sample treatment: The blood samples were placed on ice after collection and centrifuged within 1 h to obtain plasma (centrifugation conditions: 6000 g, 3 min, 2-8°C). Plasma samples were stored in a -80°C refrigerator before analysis. 6. Data processing: Pharmacokinetic parameters were calculated using Phoenix WinNonlin 8.2.0 based on plasma concentration data at different time points.

[7] = 4 h after drug addition, read-out: Mite Mortality Rate 4 h
[8] = 24 h after drug addition, read-out: Mite Mortality Rate 24 h

SMILES | mortality at 30 µM [1, 7] [%] | mortality at 30 µM [1, 8] [%] | Corrected Mortality Rate (%) ([2]; 0.125 mg/L) | Corrected Mortality Rate (%) ([2]; 0.5 mg/L) | Corrected Mortality Rate (%) ([2]; 2 mg/L) | Corrected Mortality Rate (%) ([3]; 0.02 mg/L) | Corrected Mortality Rate (%) ([3]; 0.2 mg/L) | Corrected Mortality Rate (%) ([3]; 2 mg/L) | mortality at 0.0156 µg/mL [4] [%] | mortality at 0.125 µg/mL [4] [%] | mortality at 1 µg/mL [4] [%] | Corrected Mortality Rate (%) ([5]; 2 mg/L) | Corrected Mortality Rate (%) ([5]; 10 mg/L) | Corrected Mortality Rate (%) ([5]; 50 mg/L) | other results
Cc1cc(C2=NOC(c3cc(Cl)c(Cl)c(C(F)(F)F)c3)(C(F)(F)F)C2)ccc1C(=O)NCC(=O)NC1(C(F)(F)F)CC1 (stereo not shown) [Example 029, 4-(5-(3,4-dichloro-5-(trifluoromethyl)phenyl)-5-(trifluoromethyl)-4,5-dihydroisoxazol-3-yl)-2-m ethyl-N-(2-oxo-2-((1-(trifluoromethyl)cyclopropyl)amino)ethyl)benzamide] | > 90 | > 90 | 0 | 50 | 100 | 54 | 70 | 100 | 0 | 79 | 100 | 5 | 100 | 100 | –
Cc1cc(C2=NOC(c3cc(C(F)(F)F)cc(C(F)(F)F)c3)(C(F)(F)F)C2)ccc1C(=O)NCC(=O)NC1(C(F)(F)F)CC1 (stereo not shown) [Example 030, 4-(5-(3,5-bis(trifluoromethyl)phenyl)-5-(trifluoromethyl)-4,5-dihydroisoxazol-3-yl)-2-methyl-N-(2-oxo-2-((1-(trifluoromethyl)cyclopropyl)amino)ethyl)benzamide] | > 90 | > 90 | 30 | 100 | 100 | 34 | 66 | 96 | 16 | 63 | 100 | 22 | 86 | 100 | –
Cc1cc(C2=NOC(c3cc(Cl)cc(Cl)c3)(C(F)(F)F)C2)ccc1C(=O)NCC(=O)NCC(F)(F)F (stereo not shown) [Fluralaner, fluralaner, reference compound] | – | – | – | – | – | – | – | – | – | – | – | – | – | – | Mite Mortality Rate 4 h ([1]; 4 h after drug addition): +++ (a mite mortality rate greater than or equal to 90% is denoted as "+++"); Mite Mortality Rate 24 h ([1]; 24 h after drug addition): +++ (a mite mortality rate greater than or equal to 90% is denoted as "+++"); AUC^1-24 h ([6]; IV (6 mg/kg), plasma): 22972 ng·h/mL; C0 ([6]; IV (6 mg/kg), plasma): 7151 ng/mL; CL ([6]; IV (6 mg/kg), plasma): 3.49 mL/min/kg; T1/2 ([6]; IV (6 mg/kg), plasma): 11.9 h; Vss ([6]; IV (6 mg/kg), plasma): 2.87 L/kg; F (%) ([6]; PO (30 mg/kg) vs IV (6 mg/kg)): 81.42%; AUC^1-24 h ([6]; PO (30 mg/kg), plasma): 93520 ng·h/mL; Cmax ([6]; PO (30 mg/kg), plasma): 8000 ng/mL; T1/2 ([6]; PO (30 mg/kg), plasma): 15.2 h; Tmax ([6]; PO (30 mg/kg), plasma): 1.67 h
